Biological target: T1, PI3Kα (Homo sapiens, UniProt P42336)
T1 construct: His
Experiment: PI3K Alpha Leadseeker SPA Assay
Assay type: biochemical
Conditions: in at least one experimental run; read-out: IC50 value against PI3Kα
Experimental: Compounds of the present invention were tested according to the following assays and found as inhibitors of PI3 kinases, particularly PI3Kα. The exemplified compounds were tested and found active against PI3Kα. The IC50's ranged from about 1 nM to 10 μM.
SPA imaging beads are microspheres containing scintillant which emit light in the red region of the visible spectrum. As a result, these beads are ideally suited to use with a CCD imager such as the Viewlux. The Leadseeker beads used in this system are polystyrene beads that have been coupled with polyethyleneimine. When added to the assay mixture, the beads absorb both the substrate (PIP2) and product (PIP3). Adsorbed P^33—PIP3 will cause an increase in signal, measured as ADUs (analog to digital units). This protocol details the use of the PEI-PS Leadseeker beads for assays using His-p110/p85 PI3K alpha.
Solid compounds are typically plated with 0.1 μl of 100% DMSO in all wells (except column 6 and 18) of a 384-well, flat bottom, low volume plate (Greiner 784075). The compounds are serially diluted (3-fold in 100% DMSO) across the plate from column 1 to column 12 and column 13 to column 24 and leave column 6 and 18 containing only DMSO to yield 11 concentrations for each test compound.
The assay buffer contains MOPS (pH 6.5), CHAPS, and DTT. PI3K alpha and PIP2 (L-alpha-D-myo-Phosphatidylinositol 4,5-bisphosphate [PI(4,5)P2]3-O-phospho linked, D(+)-sn-1,2-di-O-octanoylglyceryl, CellSignals # 901) are mixed and incubated in the plate with compound for 30 min prior to starting the reaction with the addition of P^33-ATP and MgCl2 (reagents added using Zoom). Enzyme-free wells (column 18) are typically done to determine the low control. PEI-PS Leadseeker beads in PBS/EDTA/CHAPS are added (by Multidrop) to quench the reaction, and the plates are allowed to incubate for at least one hour (typically overnight) before centrifugation. The signal is determined using a Viewlux detector and is then imported into curve fitting software (Activity Base) for construction of concentration response curves. The percent inhibition of activity was calculated relative to high controls (C1, 0.1 μl DMSO in column 6, rows A-P)) and low controls (C2, 5 μl of 40 uM PIP2 in buffer in column 18, rows A-P) using, 100*(1-(U1-C2)/(C1-C2)). The concentration of test compound yielding 50% inhibition was determined using the equation, y=((Vmax*x)/(K+x))+Y2, where “K” was equal to the IC50. The IC50 values were converted to pIC50 values, i.e., −log IC50 in Molar concentration.

T1 sequence (P42336 whole entry, species assumed): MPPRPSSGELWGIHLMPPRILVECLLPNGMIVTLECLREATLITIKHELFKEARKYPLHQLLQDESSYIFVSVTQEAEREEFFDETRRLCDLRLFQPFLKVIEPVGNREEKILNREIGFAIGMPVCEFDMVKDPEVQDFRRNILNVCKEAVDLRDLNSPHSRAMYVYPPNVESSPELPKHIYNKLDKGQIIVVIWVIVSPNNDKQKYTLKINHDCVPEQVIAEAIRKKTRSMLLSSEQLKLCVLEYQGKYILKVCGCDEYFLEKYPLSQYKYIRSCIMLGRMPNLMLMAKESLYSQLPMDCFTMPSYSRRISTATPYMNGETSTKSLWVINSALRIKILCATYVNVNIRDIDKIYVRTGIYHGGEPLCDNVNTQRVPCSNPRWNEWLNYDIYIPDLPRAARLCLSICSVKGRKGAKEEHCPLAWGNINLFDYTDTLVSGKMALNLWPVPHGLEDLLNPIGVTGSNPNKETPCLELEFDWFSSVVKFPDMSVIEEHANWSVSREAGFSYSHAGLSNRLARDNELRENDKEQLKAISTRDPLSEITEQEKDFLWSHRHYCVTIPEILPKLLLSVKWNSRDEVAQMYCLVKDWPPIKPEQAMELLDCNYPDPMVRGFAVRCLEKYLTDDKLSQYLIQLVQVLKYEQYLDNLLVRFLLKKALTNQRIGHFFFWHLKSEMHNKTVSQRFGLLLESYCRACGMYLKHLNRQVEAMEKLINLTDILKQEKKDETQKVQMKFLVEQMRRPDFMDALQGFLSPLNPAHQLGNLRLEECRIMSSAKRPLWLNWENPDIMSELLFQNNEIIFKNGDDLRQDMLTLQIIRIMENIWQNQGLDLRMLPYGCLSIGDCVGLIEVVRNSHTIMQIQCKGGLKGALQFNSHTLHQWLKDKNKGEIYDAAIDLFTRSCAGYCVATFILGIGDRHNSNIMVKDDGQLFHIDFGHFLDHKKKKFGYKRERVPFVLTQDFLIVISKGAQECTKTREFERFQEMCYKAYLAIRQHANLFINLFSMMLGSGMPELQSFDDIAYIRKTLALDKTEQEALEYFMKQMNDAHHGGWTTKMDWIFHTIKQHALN
T1 sequence (P27986 whole entry partner, species assumed): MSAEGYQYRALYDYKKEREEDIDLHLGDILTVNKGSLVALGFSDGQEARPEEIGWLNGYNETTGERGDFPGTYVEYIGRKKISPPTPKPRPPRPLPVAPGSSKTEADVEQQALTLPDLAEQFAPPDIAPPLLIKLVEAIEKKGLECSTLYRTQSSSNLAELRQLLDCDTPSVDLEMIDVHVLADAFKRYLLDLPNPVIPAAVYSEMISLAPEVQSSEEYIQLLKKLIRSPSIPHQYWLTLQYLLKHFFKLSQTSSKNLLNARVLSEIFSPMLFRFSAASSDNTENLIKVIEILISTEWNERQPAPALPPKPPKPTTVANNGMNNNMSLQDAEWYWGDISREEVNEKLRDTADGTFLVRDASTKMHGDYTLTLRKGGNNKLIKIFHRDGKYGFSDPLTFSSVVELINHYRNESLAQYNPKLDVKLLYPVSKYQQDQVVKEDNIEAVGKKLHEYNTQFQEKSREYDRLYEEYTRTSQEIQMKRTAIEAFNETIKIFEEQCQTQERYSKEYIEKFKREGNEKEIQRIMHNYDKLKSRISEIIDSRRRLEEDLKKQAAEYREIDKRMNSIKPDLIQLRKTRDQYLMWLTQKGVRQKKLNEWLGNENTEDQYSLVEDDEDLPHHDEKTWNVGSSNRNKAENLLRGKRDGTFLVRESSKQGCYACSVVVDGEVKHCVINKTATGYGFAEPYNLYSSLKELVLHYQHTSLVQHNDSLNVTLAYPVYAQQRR

Q: How did the IC50 turn out when `CN(C)S(=O)(=O)c1cc(-c2ccc3nc(NCCO)nc(-c4ccncc4)c3c2)cnc1N` [Example 1, 2-amino-5-[2-[(2-hydroxyethyl)amino]-4-(4-pyridinyl)-6-quinazolinyl]-N,N-dimethyl-3-pyridinesulfonamide] was run?
A: 7.9 nM

Q: For `OCc1cccc(Nc2nc(-c3ccncc3)c3cc(-c4cnc5[nH]ccc5c4)ccc3n2)c1` [Example 2, (3-{[4-(4-pyridinyl)-6-(1H-pyrrolo[2,3-b]pyridin-5-yl)-2-quinazolinyl]amino}phenyl)methanol], which IC50 is on record?
A: 100 nM

Q: How did the IC50 turn out when `CC(=O)Nc1nc(-c2ccncc2)c2cc(-c3cnc(Cl)c(NS(=O)(=O)c4ccccc4)c3)ccc2n1` [Example 6, N-[6-{6-chloro-5-[(phenylsulfonyl)amino]-3-pyridinyl}-4-(4-pyridinyl)-2-quinazolinyl]acetamide] was run?
A: 1.4 nM

Q: Which IC50 does the source give for `c1nc(N2CCOCC2)c2cc(-c3cnc4[nH]ccc4c3)ccc2n1` [Example 15, 4-(4-morpholinyl)-6-(1H-pyrrolo[2,3-b]pyridin-5-yl)quinazoline] here?
A: 50 nM

Q: For `NS(=O)(=O)c1cncc(-c2ccc3ncnc(N4CCCCC4)c3c2)c1` [Example 16, 5-[4-(1-piperidinyl)-6-quinazolinyl]-3-pyridinesulfonamide], which IC50 is on record?
A: 40 nM

Q: With `CCN1CCN(c2ncnc3ccc(-c4cncc(NS(=O)(=O)c5ccc(F)cc5F)c4)cc23)CC1=O` [Example 61, N-{5-[4-(4-ethyl-3-oxo-1-piperazinyl)-6-quinazolinyl]-3-pyridinyl}-2,4-difluorobenzenesulfonamide] as the compound, how does the IC50 read?
A: 1 nM

Q: For `COc1ccc(Nc2ncnc3ccc(-c4cncc(NS(=O)(=O)c5ccc(F)cc5F)c4)cc23)cc1Cl` [Example 73, N-[5-(4-{[3-chloro-4-(methyloxy)phenyl]amino}-6-quinazolinyl)-3-pyridinyl]-2,4-difluorobenzenesulfonamide], which IC50 is on record?
A: 2.5 nM

Source: US20090018131A1, “QUINAZOLINE DERIVATIVES AS P13 KINASE INHIBITORS” (priority 2007, published 2009)
